From patent publication US20230192704A1, “MONOCARBOXYLIC ACID TRANSPORTER 4 (MCT4) MODULATORS AND USES THEREOF” (Teon Therapeutics, Inc., priority 2020, published 2023) come the findings set out here.

One assay deals with T1, MCT1 (Homo sapiens, UniProt P53985).
T1 construct: BT-20 cells—a triple negative human breast cancer cell line expressing exclusively MCT1 (confirmed by Western blotting); host or cells: BT-20
T1 sequence (P53985 1-500): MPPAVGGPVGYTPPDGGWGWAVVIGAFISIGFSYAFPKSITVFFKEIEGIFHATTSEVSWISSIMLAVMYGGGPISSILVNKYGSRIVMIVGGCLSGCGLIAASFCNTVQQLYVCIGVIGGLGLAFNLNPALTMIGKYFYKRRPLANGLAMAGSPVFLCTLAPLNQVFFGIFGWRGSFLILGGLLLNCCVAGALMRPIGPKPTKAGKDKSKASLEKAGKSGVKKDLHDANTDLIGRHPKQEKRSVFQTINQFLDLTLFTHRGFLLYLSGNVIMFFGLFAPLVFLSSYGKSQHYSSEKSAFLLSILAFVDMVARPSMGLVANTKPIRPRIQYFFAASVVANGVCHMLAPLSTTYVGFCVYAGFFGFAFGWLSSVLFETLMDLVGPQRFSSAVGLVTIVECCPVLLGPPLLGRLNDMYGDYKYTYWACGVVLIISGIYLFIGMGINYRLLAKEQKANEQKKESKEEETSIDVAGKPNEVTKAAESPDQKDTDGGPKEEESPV
T1 sequence (P35613 140-385 partner limits assumed): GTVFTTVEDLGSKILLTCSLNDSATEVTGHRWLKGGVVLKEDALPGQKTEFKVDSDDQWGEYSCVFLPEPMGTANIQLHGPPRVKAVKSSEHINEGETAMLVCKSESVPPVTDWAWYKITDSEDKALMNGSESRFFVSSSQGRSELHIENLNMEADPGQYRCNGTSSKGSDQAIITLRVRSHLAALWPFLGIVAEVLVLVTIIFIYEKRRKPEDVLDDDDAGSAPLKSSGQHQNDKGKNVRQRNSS
Put plainly: MCT1 transport assay (L-lactate influx, BCECF-AM intracellular pH). Type of assay: cell-based. As to conditions: BT-20 cells expressing exclusively MCT1. An excerpt: The following in vitro MCT4 and MCT1 transport assays were used to measure the effect of the compounds on L-lactate influx into two different cell lines: • a) MDA-MB-231 cells—a triple negative human breast cancer cell line expressing exclusively MCT4 (confirmed by Western blotting) was used for the MCT4 transport assay, • b) BT-20 cells—a triple negative human breast cancer cell line expressing exclusively MCT1 (confirmed by Western blotting) was used for the
(§1) The compounds' efficacy in both assays was determined by calculating their IC50 value (the concentration of test compound that inhibited 50% of biological activity).
(§2) MCT4 is predominantly involved in cellular efflux of lactate from the cell, preventing intracellular acidification. In the MCT4 in vitro transport system described here it was possible to drive influx of lactate in the cells and test the compounds efficacy in preventing this process. MCT1 is involved in influx-efflux of lactate, and because it is closely related to MCT4, it is a major selectivity target for MCT4 inhibitor. The MCT1 in vitro transport system described here measured the influx of lactate in the cells and ability of test compounds in preventing this process.
BT-20 (ATCC); Media: EMEM+10% FBS+1% PS
(§3) Tyrode's Solution pH7.4 (NaCl 119 mM; KC1 5 mM; HEPES pH7.4 25 mM; CaCl2 2 mM; MgCl2 2 mM; Glucose 6 g/L)
(§4) The following assay was performed to assess MCT4 (MDA-MB-231 cell line) or MCT1 (BT-20 cell line) activity by monitoring the intracellular pH change that accompanies lactate/proton transport using the pH-sensitive fluorescent dye BCECF-AM.
(§5) Compound preparation: The compounds were serially diluted in 100% DMSO 1:3 for 8 pts and transferred (500 nl) to a 96-well plate by Echo.
(§6) Cell preparation: Cells were briefly rinsed with 10 ml of PBS solution to remove all traces of serum, trypsinized (0.05% Trypsin-EDTA) at 25° C. for 2-3 minutes and washed twice with Tyrode's solution. The cell viability and concentration were determined using Vi-Cell. Cells were resuspended in Tyrode's solution.
(§7) Cells were loaded with the pH sensitive dye BCECF-AM (5 uM final concentration from the 30 mM DMSO stock solution) at 37° C. for 30 minutes before being washed twice to remove excess dye and resuspended to 2 million/ml cells in Tyrode's solution. Cells were seeded into a 96-well plate (200,000 cells/well) directly onto the test compound or a reference compound for 10 minutes at 37° C. Following incubation with test compounds, 25 ul of 30 mM Sodium-L-lactate was added. This addition was performed on the FlexStation III as a part of a real-time kinetic protocol. The ratio of cellular fluorescence at 535 nm after excitation at 490 nm/440 nm was measured over time for baseline (pre-lactate addition) and post-lactate addition for 60 sec with or without compounds present. Inhibitory concentration response curves were generated for compounds and their IC50 values calculated.

The next assay addresses T2, MCT4 (Homo sapiens, UniProt O15427).
T2 construct: MDA-MB-231 cells—a triple negative human breast cancer cell line expressing exclusively MCT4 (confirmed by Western blotting); host or cells: MDA-MB-231
T2 sequence (O15427 2-465 limits assumed): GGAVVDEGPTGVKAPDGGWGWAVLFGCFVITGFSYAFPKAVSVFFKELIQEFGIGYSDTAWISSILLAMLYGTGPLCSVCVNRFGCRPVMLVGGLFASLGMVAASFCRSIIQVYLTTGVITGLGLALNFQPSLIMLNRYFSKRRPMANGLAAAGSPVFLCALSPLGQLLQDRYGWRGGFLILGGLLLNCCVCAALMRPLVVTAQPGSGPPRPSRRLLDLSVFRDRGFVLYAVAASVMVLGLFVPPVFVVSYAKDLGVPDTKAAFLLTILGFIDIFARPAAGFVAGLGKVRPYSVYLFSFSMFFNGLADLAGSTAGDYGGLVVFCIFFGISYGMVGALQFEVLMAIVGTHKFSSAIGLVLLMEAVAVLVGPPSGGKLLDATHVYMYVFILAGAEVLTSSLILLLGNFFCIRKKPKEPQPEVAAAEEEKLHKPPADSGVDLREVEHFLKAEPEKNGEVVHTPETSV
Put plainly: MCT4 transport assay (L-lactate influx, BCECF-AM intracellular pH). Type of assay: cell-based. As to conditions: MDA-MB-231 cells expressing exclusively MCT4. Here is the method:
as §1, §2, §3, §4, §5, §6, §7

A value given as a limit tells only on which side of the number the result lay.

The term IC50 denotes the concentration that inhibits the measured activity by half. High values mean a need for much substance, low ones inhibition by little substance. As to `Cc1nc2nc(C)c(O[C@@H]3CCN(c4ccc(-c5ccc(CN6CC(C(N)=O)C6)nn5)cc4)C3)c(C)n2n1` [Compound 11, (R)-1-((6-(4-(3-((2,5,7-trimethyl-[1,2,4]triazolo[1,5-a]pyrimidin-6-yl)oxy)pyrrolidin-1-yl)phenyl)pyridazin-3-yl)methyl)azetidine-3-carboxamide], the IC50 on MCT1 was above 1000 nM; against MCT4, 100 to 499 nM.

`Cc1nc2nc(C)c(O[C@@H]3CCN(c4ccc(-c5ccc(CN6CC(C(=O)N(C)C)C6)nn5)cc4)C3)c(C)n2n1` [Compound 12, (R)-N,N-dimethyl-1-((6-(4-(3-((2,5,7-trimethyl-[1,2,4]triazolo[1,5-a]pyrimidin-6-yl)oxy)pyrrolidin-1-yl)phenyl)pyridazin-3-yl)methyl)azetidine-3-carboxamide]: the results for the IC50 on MCT1 and against MCT4 were above 1000 nM and below 100 nM, respectively.

Take `Cc1nc2nc(C)c(O[C@@H]3CCN(c4ccc(-c5ccc(C(=O)N6CC7(COC7)C6)nn5)cc4)C3)c(C)n2n1` [Compound 13, (R)-(2-oxa-6-azaspiro[3.3]heptan-6-yl)(6-(4-(3-((2,5,7-trimethyl-[1,2,4]triazolo[1,5-a]pyrimidin-6-yl)oxy)pyrrolidin-1-yl)phenyl)pyridazin-3-yl)methanone]: the IC50 at MCT1 was above 1000 nM; at MCT4 it was below 100 nM.

On to `COC1CN(C(=O)c2ccc(-c3ccc(N4CC[C@@H](Oc5c(C)nc6nc(C)nn6c5C)C4)cc3)nn2)C1` [Compound 14, (R)-(3-methoxyazetidin-1-yl)(6-(4-(3-((2,5,7-trimethyl-[1,2,4]triazolo[1,5-a]pyrimidin-6-yl)oxy)pyrrolidin-1-yl)phenyl)pyridazin-3-yl)methanone], for which the values for the IC50 at MCT1 and against MCT4 were above 1000 nM and below 100 nM, respectively.

As to `Cc1nc2nc(C)c(O[C@@H]3CCN(c4ccc(-c5ccc(C(=O)N6CC(N(C)C)C6)nn5)cc4)C3)c(C)n2n1` [Compound 15, (R)-(3-(dimethylamino)azetidin-1-yl)(6-(4-(3-((2,5,7-trimethyl-[1,2,4]triazolo[1,5-a]pyrimidin-6-yl)oxy)pyrrolidin-1-yl)phenyl)pyridazin-3-yl)methanone], the IC50 is above 1000 nM against MCT1 and below 100 nM against MCT4.

For `Cc1nc2nc(C)c(O[C@@H]3CCN(c4ccc(-c5ccc(C(=O)N6CC(S(C)(=O)=O)C6)nn5)cc4)C3)c(C)n2n1` [Compound 16, (R)-(3-(methylsulfonyl)azetidin-1-yl)(6-(4-(3-((2,5,7-trimethyl-[1,2,4]triazolo[1,5-a]pyrimidin-6-yl)oxy)pyrrolidin-1-yl)phenyl)pyridazin-3-yl)methanone], the IC50 is above 1000 nM against MCT1 and below 100 nM on MCT4.

As for `Cc1nc2nc(C)c(O[C@@H]3CCN(c4ccc(-c5ccc(C(=O)N6CC(C(N)=O)C6)nn5)cc4)C3)c(C)n2n1` [Compound 17, (R)-1-(6-(4-(3-((2,5,7-trimethyl-[1,2,4]triazolo[1,5-a]pyrimidin-6-yl)oxy)pyrrolidin-1-yl)phenyl)pyridazine-3-carbonyl)azetidine-3-carboxamide], the results for the IC50 against MCT1 and against MCT4 were above 1000 nM and 500 to 1000 nM, respectively.

`Cc1nc2nc(C)c(O[C@@H]3CCN(c4ccc(-c5ccc(C(=O)N6CC(C(=O)N(C)C)C6)nn5)cc4)C3)c(C)n2n1` [Compound 18, (R)-N,N-dimethyl-1-(6-(4-(3-((2,5,7-trimethyl-[1,2,4]triazolo[1,5-a]pyrimidin-6-yl)oxy)pyrrolidin-1-yl)phenyl)pyridazine-3-carbonyl)azetidine-3-carboxamide]: the IC50 against MCT1 is above 1000 nM; at MCT4, below 100 nM.

Turning to `Cc1nc2nc(C)c(O[C@@H]3CCN(c4ccc(-c5ccc(C(=O)N6CCOCC6)nn5)cc4)C3)c(C)n2n1` [Compound 19, (R)-morpholino(6-(4-(3-((2,5,7-trimethyl-[1,2,4]triazolo[1,5-a]pyrimidin-6-yl)oxy)pyrrolidin-1-yl)phenyl)pyridazin-3-yl)methanone], the 50% inhibitory concentration (IC50) against MCT1 was above 1000 nM; against MCT4, below 100 nM.
